Measurements reported in patent US6685617B1, “Inhibitors of α4β1 mediated cell adhesion” (Pharmacia & Upjohn Company, priority 1998, dated 2004).

Columns and labels:
[1] = target: T1, α4β1 integrin (Jurkat T-cell adhesion to IL-1 stimulated endothelial cell monolayers) (Homo sapiens, UniProt P05556+P13612); experiment: Jurkat-endothelial cell adhesion assay (Jurkat EC); type: cell-based; settings: Jurkat cells on IL-1 stimulated human umbilical vein endothelial cells; read-out: JK/EC (Jurkat EC Assay IC50 value range)
T1 construct: a T-cell line, Jurkat, known to express the α4β1 integrin; host or cells: Jurkat T-cell line
Procedure, shortened: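 BCECF-AM-labelled Jurkat cells were mixed with compound, generally 100, 20, 5 and 1.25 μM, and added to HUVEC monolayers (passage ≤6) pre-stimulated 4 hr at 37° C with 0.1 ng/ml IL-1. After 5 min on ice and 20 min at 37° C, washed wells were read by fluorescence as % adhesion relative to no compound.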

[2] = target: T2, α4β1 integrin (Jurkat cell adhesion to immobilized CS-1 derived peptide CLHPGEILDVPST) (Homo sapiens, UniProt P05556+P13612); experiment: Jurkat-CS-1 assay; type: cell-based; settings: Jurkat cells on CS-1 peptide coated plates; read-out: JK/CS-1 (Jurkat CS-1 Assay IC50 value range)
T2 construct: 100 μl of Jurkat cells (2.5×10^6 cells/ml) in DMEM plus BSA; host or cells: Jurkat T-cell line
Procedure, shortened: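 CS-1 peptide was SPDP-crosslinked onto HSA-coated plates and blocked with BSA. Jurkat cells (2.5×10^6 cells/ml) in DMEM/BSA were mixed with compound, generally at 100, 20, 5 and 1.25 μM, and allowed to adhere for 1 hr at 37° C. Bound cells were fixed, stained with toluidine blue and quantified by OD590.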

[3] = test system: VLA-4 integrin-dependent eosinophil infiltration; experiment: Dextran pleurisy model (intrapleural dextran, pleural leukocyte infiltration); type: in vivo, C57BL/6 mice; settings: dose 50 × 2 iv; mouse, 4 h after intrapleural dextran
Method: Animals, Housing and Viral Testing:
C57BL/6 mice (Jackson, Bar Harbor, Me.), 6-8 weeks old, weighing 20-25 g were used throughout. All mice were acclimated for at least 7-14 days after arrival and maintained under controlled temperature (20-22° C.) and a 12 hr daily light cycle (6.00 A.M.-6.00 P.M.). Mice were housed in laminar flow racks and checked biweekly for viral infections (mouse hepatitis virus, minute virus of mice, rodent orphan parvovirus, Sendai) with kits obtained from Oreganon Teknika (Durham, N.C.) using established enzyme-linked immunoabsorbent assays. Mice testing positive for any of the above were omitted from the study. […]
Quantitation of Pleural Inflammatory Leukocyte Responses: […]
The pleural cavities of mice receiving either no intrapleural injection, or saline were washed and the cells counted in the same way to estimate baseline or saline-induced pleural leukocyte counts respectively. […]
The following compounds were tested for their inhibitory effects on dextran-induced leukocyte infiltration: Examples 3, 8, 9, 10, 12, 16, 37, 62, 66, 67, 99, 100, 111, 113, 115, 127, 131, 141, 184, 185, 192, PBS (saline) was administered iv. as a control. Inhibition of eosinophil infiltration, which was suppressed by anti-alpha-4 Mab (PS/2, 50%), was used as a readout of VLA-4 antagonist activity of the compounds tested. […]

T2 sequence (P13612 34-1032): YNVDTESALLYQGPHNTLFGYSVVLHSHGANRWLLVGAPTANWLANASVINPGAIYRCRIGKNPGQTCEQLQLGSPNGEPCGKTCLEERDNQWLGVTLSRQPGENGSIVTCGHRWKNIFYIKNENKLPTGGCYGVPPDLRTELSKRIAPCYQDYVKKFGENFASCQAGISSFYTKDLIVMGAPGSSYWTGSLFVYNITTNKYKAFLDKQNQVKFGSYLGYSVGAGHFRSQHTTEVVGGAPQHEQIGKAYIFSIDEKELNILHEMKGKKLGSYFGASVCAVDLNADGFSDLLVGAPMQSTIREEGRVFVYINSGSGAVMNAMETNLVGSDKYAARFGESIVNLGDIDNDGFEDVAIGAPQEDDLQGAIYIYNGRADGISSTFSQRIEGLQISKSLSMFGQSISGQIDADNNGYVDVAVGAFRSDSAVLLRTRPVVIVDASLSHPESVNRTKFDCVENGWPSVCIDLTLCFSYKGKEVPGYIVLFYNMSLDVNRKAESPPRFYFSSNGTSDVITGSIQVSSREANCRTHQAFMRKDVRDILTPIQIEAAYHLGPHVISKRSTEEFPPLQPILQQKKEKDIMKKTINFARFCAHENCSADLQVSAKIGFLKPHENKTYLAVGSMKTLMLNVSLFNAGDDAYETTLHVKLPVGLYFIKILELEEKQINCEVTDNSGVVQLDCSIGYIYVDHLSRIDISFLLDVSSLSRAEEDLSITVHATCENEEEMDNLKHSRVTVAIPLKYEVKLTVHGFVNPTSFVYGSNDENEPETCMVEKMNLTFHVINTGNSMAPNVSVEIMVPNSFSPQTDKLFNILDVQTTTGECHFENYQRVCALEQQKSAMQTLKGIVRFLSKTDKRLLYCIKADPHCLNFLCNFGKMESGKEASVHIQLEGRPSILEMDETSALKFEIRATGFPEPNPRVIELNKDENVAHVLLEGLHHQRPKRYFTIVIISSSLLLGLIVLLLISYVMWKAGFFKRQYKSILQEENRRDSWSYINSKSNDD
T2 sequence (P05556 21-798): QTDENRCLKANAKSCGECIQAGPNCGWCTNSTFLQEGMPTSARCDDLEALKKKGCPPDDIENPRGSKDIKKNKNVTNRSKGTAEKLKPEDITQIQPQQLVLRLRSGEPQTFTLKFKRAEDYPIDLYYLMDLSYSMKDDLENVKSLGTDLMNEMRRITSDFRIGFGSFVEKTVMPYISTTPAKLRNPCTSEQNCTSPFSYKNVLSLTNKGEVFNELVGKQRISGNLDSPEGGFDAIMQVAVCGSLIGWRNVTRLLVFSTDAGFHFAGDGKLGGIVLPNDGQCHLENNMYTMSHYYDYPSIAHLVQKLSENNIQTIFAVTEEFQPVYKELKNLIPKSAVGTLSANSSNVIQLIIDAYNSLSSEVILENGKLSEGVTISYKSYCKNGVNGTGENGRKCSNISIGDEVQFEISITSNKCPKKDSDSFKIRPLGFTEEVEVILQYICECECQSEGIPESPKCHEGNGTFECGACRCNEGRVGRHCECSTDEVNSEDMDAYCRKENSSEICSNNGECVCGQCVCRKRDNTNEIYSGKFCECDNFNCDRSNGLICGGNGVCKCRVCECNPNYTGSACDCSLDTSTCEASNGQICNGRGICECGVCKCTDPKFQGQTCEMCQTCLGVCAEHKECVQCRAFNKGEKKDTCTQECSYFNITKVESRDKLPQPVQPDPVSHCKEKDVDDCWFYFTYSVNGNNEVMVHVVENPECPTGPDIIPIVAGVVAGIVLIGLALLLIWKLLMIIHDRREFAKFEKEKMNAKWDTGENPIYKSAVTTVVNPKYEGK
T1 sequence (P13612 34-1032): as the sequence (P13612 34-1032) above
T1 sequence (P05556 21-798): as the sequence (P05556 21-798) above

melting point [°C] | IC50 [1] [nM] | IC50 [2] [nM] | Compound | % Inhibition of Eosinophil infiltration (Eos) [3]
113 to 115 | ≥ 1000 | ≥ 750 | COC(=O)[C@H](Cc1ccc(NC(=O)c2c(Cl)cccc2Cl)cc1)NC(=O)[C@@H]1CCN1 [Example 158, [2S-(R*,R*)]-2-[[[1-[[4-[(2,6-Dichlorobenzoyl)amino]phenyl]methyl]-2-methoxy-2-oxoethyl]amino]carbonyl]azetidine] | 
228 to 230 | ≥ 1000 | ≥ 750 | CS(=O)(=O)N1CSC[C@@H]1C(=O)N[C@@H](Cc1ccc(OCc2c(Cl)cccc2Cl)cc1)C(N)=O [Example 159] | 

Compound | melting point [°C] | IC50 [1] [nM] | IC50 [2] [nM] | % Inhibition of Eosinophil infiltration (Eos) [3]
[2R-[1(S*),2α,4β(S*)]]-4-[[[1-Carboxy-2-[4-[(2,6-dichlorobenzoyl)amino]phenyl]ethyl]-amino]carbonyl]-1-(1-phenylethyl)-2-azetidincearboxylic Acid, Dilithium Salt [Example 131] |  | 250 to 1000 | 50 to 750 | C (C<19)
